The subject of data set [1] is rat mesangial cells. The data set can be described thus: Proline incorporation assay: reduction of TGF-beta 1 stimulated proline incorporation. Type of data set: cell-based. As to conditions: Mesangial cell, 44 h, TGF-beta 1 5 ng/mL, read-out: Percentage Reduction of TGF-Beta 1 Stimulated Proline Incorporation; for inhibition at 10 µM: 10 μM compound; for inhibition at 30 µM: 30 μM compound; for inhibition at 100 µM: 100 μM compound. The method, then: (§1) A well-characterised cloned rat mesangial cell line (Kakizaki Y, Kraft N, Atkins R C: Differential control of mesangial cell proliferation by interferon-gamma. Clin Exp Immunol 85:157-163, 1991) was cultured in DMEM (5 mM glucose) with 5% FBS, 100U/mL penicillin, and 100 ug/mL streptomycin in humidified 5% CO2 atmosphere at 37 C. Cells were used up to passage 40.
Proline Incorporation Assay
(§2) Cells were plated into 24-well culture dishes in DMEM/5% FBS and allowed to adhere overnight. The subconfluent cells were then starved overnight in DMEM/0.1% FBS and 150 uM L-ascorbic acid, prior to pre-treatment with or without FibroTech compounds for 4 hours at 10, 30 or 100 uM in 0.1% DMSO, final concentration. TGF-beta 1 at 5 ng/mL (Peprotech) and tritiated proline (Perkin-Elmer, (2,3,4,5-^3H)-proline) at 1 uCi/mL were added and the incubation continued for a further 44 hours. Treatments were performed in triplicate.
After the incubation, cells were placed on ice and washed three times with ice cold PBS. They were then incubated on ice with 10% TCA for 30 minutes, followed by a final wash in cold 10% TCA. The cells were solubilized in 0.75 mL of 1M NaOH at 37 C for 45 minutes, or overnight at 4 C. Aliquots of the solubilized cells were neutralized in an equal amount of 1M HCl and counted in scintillant in a beta counter. Aliquots of neutralized solubilized cells were assayed for protein using the BioRad Bradford Protein Assay. Proline incorporation was normalized for protein content (cpm ^3H-proline incorporated per ug protein).
In order to compare the results of experiments performed on different days, the percentage inhibition of proline incorporation was calculated for each treatment by setting the TGF treatment at 0% inhibition and the control (incubation with media alone) at 100% inhibition.
Percentage Reduction of TGF-Beta 1 Stimulated Proline Incorporation: […]

The subject of data set [2] is rat mesangial cells. The data set can be described thus: Toxicity rank and cell condition observed in the proline incorporation assay. Further details: key to Tox. Rank (4 = non-toxic): (4 = non-toxic). It is filed as cell-based. As to conditions: for Cell condition observed (sick, dead, some death, cells elongated): 100 μM; for Cell condition observed (sick, dead): 30 μM. The protocol: as §1, §2

Data set [3] in a line: Compound precipitation observed during the proline incorporation assay. Further details: key: ppt indicates compound precipitated during assay. Type of data set: physicochemical. The method, then: as §2

Structures are written as SMILES.

With `COc1ccc(/C=C/c2nc3ccccc3[nH]2)cc1OC` [FT121, (E)-2-(3,4-Dimethoxystyryl)-1H-benzo[d]imidazole], in the data set with rat mesangial cells [1], the inhibition at 10 µM is approximately 60% and the inhibition at 30 µM is more than 100%. For the same molecule, the “Cell condition observed (sick, dead, some death, cells elongated)” value in the data set on rat mesangial cells [2] is recorded as “dead”. For the same molecule, the “Tox. Rank (4 = non-toxic)” value with rat mesangial cells [2] (@30 uM) is 3@30 uM. The “Tox. Rank (4 = non-toxic)” value with rat mesangial cells [2] (@100 uM) is listed as 1@100 uM.
A word on the melting point: it is the temperature, or range, at which the solid turns liquid. Take `O=c1oc(/C=C/c2ccc(OC(F)F)c(OC(F)F)c2)nc2ccccc12` [FT108, (E)-2-(3,4-Bis(difluoromethoxy)styryl)-4H-benzo[d][1,3]oxazin-4-one]: the melting point was in the range of 113 to 115 °C. Besides, in the data set with rat mesangial cells [1], the inhibition at 10 µM came to 75%, the inhibition at 30 µM turned out to be 95% and the inhibition at 100 µM was more than 100%. Also, in the data set with rat mesangial cells [2] (no concentration stated), the “Tox. Rank (4 = non-toxic)” value is on record as 4.
`COc1ccc(/C=C/C(=O)n2c(=O)n(C)c3ccccc32)cc1OC` [FT123, (E)-1-(3-(3,4-Dimethoxyphenyl)acryloyl)-3-methyl-1H-benzo[d]imidazol-2(3H)-one]: in the data set with rat mesangial cells [1], the inhibition at 10 µM was 0%, the inhibition at 30 µM was determined as 0% and the inhibition at 100 µM was determined as 0%. For the same molecule, in the data set with rat mesangial cells [2], the “Cell condition observed (sick, dead)” value is “sick” and the “Cell condition observed (sick, dead, some death, cells elongated)” value is “dead”. In addition, the “Tox. Rank (4 = non-toxic)” value in the data set with rat mesangial cells [2] (no concentration stated) was 1 to 2. For the same molecule, the “Compound precipitated during assay” value in data set [3] (30 μM in 0.1% DMSO) is given as “ppt”. The “Compound precipitated during assay” value in data set [3] (100 μM in 0.1% DMSO) was “ppt”.
Consider `COc1ccc(/C=C/C(=O)N2CCOc3ccccc32)cc1OC` [FT122, (E)-1-(2,3-Dihydrobenzo[b][1,4]oxazin-4-yl)-3-(3,4-dimethoxyphenyl)prop-2-en-1-one], for which, in the data set on rat mesangial cells [1], the inhibition at 10 µM was approximately 25% and the inhibition at 30 µM is approximately 80%. For the same molecule, in the data set on rat mesangial cells [2], the “Cell condition observed (sick, dead, some death, cells elongated)” value is recorded as “dead”. Also, the “Tox. Rank (4 = non-toxic)” value in the data set on rat mesangial cells [2] (@30 uM) is reported as 4@30 uM. Further, in the data set with rat mesangial cells [2] (@100 uM), the “Tox. Rank (4 = non-toxic)” value is 1@100 uM.
Turning to `COc1cc2c(cc1OC)CC(C(=O)Nc1ccccc1C(=O)O)=C2` [FT126, 2-(5,6-Dimethoxy-1H-indene-2-carboxamido)benzoic acid], in the data set with rat mesangial cells [1], the inhibition at 10 µM is approximately 55%, the inhibition at 30 µM is approximately 75% and the inhibition at 100 µM was approximately 100%. Also, the “Tox. Rank (4 = non-toxic)” value with rat mesangial cells [2] (no concentration stated) is recorded as 4.
As for `COc1cc2c(cc1OC)CC(C(=O)Nc1ccccc1C(=O)O)CC2` (stereo not drawn) [FT130, 2-(6,7-Dimethoxy-1,2,3,4-tetrahydronaphthalene-3-carboxamido)benzoic acid], in the data set with rat mesangial cells [1], the inhibition at 10 µM is approximately 10%, the inhibition at 30 µM was approximately 30% and the inhibition at 100 µM is approximately 50%. The “Tox. Rank (4 = non-toxic)” value in the data set with rat mesangial cells [2] (@100 uM) is 2@100 uM.
As for `COc1ccc(/C=C/c2nc3c(C(=O)O)cccc3o2)cc1OC` [FT132, (E)-2-(3,4-Dimethoxystyryl)benzo[d]oxazole-4-carboxylic acid], in the data set with rat mesangial cells [1], the inhibition at 10 µM is approximately 2%, the inhibition at 30 µM is approximately 75% and the inhibition at 100 µM is approximately 75%. The “Cell condition observed (sick, dead, some death, cells elongated)” value in the data set with rat mesangial cells [2] is on record as “(some death)”. Also, the “Tox. Rank (4 = non-toxic)” value with rat mesangial cells [2] (@100 uM) is 3@100 uM. Further, in data set [3] (30 μM in 0.1% DMSO), the “Compound precipitated during assay” value was “ppt”. Further, the “Compound precipitated during assay” value in data set [3] (100 μM in 0.1% DMSO) is recorded as “ppt”.
As for `COc1cc2c(cc1OC)CCC(C(=O)Nc1ccccc1C(=O)O)=C2` [FT129, 2-(6,7-Dimethoxy-1,2-dihydronaphthalene-3-carboxamido)benzoic acid], in the data set on rat mesangial cells [1], the inhibition at 10 µM was approximately 10% and the inhibition at 30 µM is approximately 75%. Moreover, the “Cell condition observed (sick, dead, some death, cells elongated)” value with rat mesangial cells [2] is listed as “dead”. Besides, in the data set with rat mesangial cells [2] (@30 uM), the “Tox. Rank (4 = non-toxic)” value is 2@30 uM. The “Tox. Rank (4 = non-toxic)” value in the data set on rat mesangial cells [2] (@100 uM) is 1@100 uM.
On to `COc1ccc(/C=C/C(=O)N2CC(=O)Nc3ccccc32)cc1OC` [FT125, (E)-4-(3-(3,4-Dimethoxyphenyl)acryloyl)-3,4-dihydroquinoxalin-2(1H)-one], for which, in the data set with rat mesangial cells [1], the inhibition at 10 µM was 0%, the inhibition at 30 µM is 0% and the inhibition at 100 µM came to 0%. In the data set with rat mesangial cells [2], the “Cell condition observed (sick, dead)” value is listed as “sick” and the “Cell condition observed (sick, dead, some death, cells elongated)” value was “sick”. Moreover, the “Tox. Rank (4 = non-toxic)” value with rat mesangial cells [2] (no concentration stated) worked out at 2.
On to `COc1cc2c(cc1OC)/C(=C/C(=O)Nc1ccccc1C(=O)O)CNC2=O` [FT131, (Z)-2-(2-(6,7-Dimethoxy-1-oxo-2,3-dihydroisoquinolin-4(1H)-ylidene)acetamido)benzoic acid], for which, in the data set with rat mesangial cells [1], the inhibition at 10 µM was approximately 20%, the inhibition at 30 µM was approximately 10% and the inhibition at 100 µM is approximately 10%. The “Tox. Rank (4 = non-toxic)” value in the data set with rat mesangial cells [2] (no concentration stated) turned out to be 4.
As to `COc1cc(/C=C/c2nc3ccccc3c(=O)o2)ccc1OC(C)=O` [FT109, (E)-2-(4-Acetoxy-3-methoxystyryl)-4H-benzo[d][1,3]oxazin-4-one], the melting point lay within 185 to 186 °C. Further, in the data set with rat mesangial cells [1], the inhibition at 10 µM stood at 3%, the inhibition at 30 µM was 16% and the inhibition at 100 µM was determined as 75%. Moreover, the “Tox. Rank (4 = non-toxic)” value with rat mesangial cells [2] (no concentration stated) is listed as 4. Further, the “Compound precipitated during assay” value in data set [3] (100 μM in 0.1% DMSO) is “ppt”.
Regarding `COc1cc2nc(C(=O)Nc3ccccc3C(=O)O)[nH]c2cc1OC` [FT127, 2-(5,6-Dimethoxy-1H-benzo[d]imidazole-2-carboxamido)benzoic acid], in the data set with rat mesangial cells [1], the inhibition at 10 µM was found to be 0%, the inhibition at 30 µM is 0% and the inhibition at 100 µM is approximately 50%. In addition, the “Tox. Rank (4 = non-toxic)” value with rat mesangial cells [2] (no concentration stated) is recorded as 4.
In turn, `COc1ccc(/C=C/C2=NS(=O)(=O)c3ccccc3N2)cc1OC` [FT98, (E)-3-[2-(3,4-Dimethoxyphenyl)ethenyl]-4H-1,2,4-benzothiadiazine-1,1-dioxide] had a melting point of 276 to 279 °C. In the data set on rat mesangial cells [1], the inhibition at 10 µM was determined as 30%, the inhibition at 30 µM worked out at 70% and the inhibition at 100 µM was 70%. Further, the “Tox. Rank (4 = non-toxic)” value in the data set on rat mesangial cells [2] (no concentration stated) came out at 4.
As for `COc1ccc(/C=C/C(=O)N2CCc3ccccc32)cc1OC` [FT113, (E)-3-(3,4-dimethoxyphenyl)-1-(indolin-1-yl)prop-2-en-1-one], the melting point lay in the range of 118 to 120 °C. In the data set on rat mesangial cells [1], the inhibition at 10 µM was 20%, the inhibition at 30 µM stood at 67% and the inhibition at 100 µM is 44%. The “Tox. Rank (4 = non-toxic)” value with rat mesangial cells [2] (no concentration stated) was 4.
With `COc1cc2c(cc1OC)S(=O)(=O)C(C(=O)Nc1ccccc1C(=O)O)=C2` [FT128, 2-(1,1-Dioxo-5,6-dimethoxybenzo[b]thiophene-2-carboxamido)benzoic acid], in the data set on rat mesangial cells [1], the inhibition at 10 µM was approximately 20%, the inhibition at 30 µM was approximately 20% and the inhibition at 100 µM was approximately 40%. In addition, the “Cell condition observed (sick, dead, some death, cells elongated)” value with rat mesangial cells [2] is listed as “(some death)”. Moreover, in the data set on rat mesangial cells [2] (@100 uM), the “Tox. Rank (4 = non-toxic)” value is 3@100 uM.
In the case of `COc1ccc(/C=C/c2nc3ccccc3c(=O)o2)cc1OC` [FT106, (E)-2-(3,4-Dimethoxystyryl)-4H-benzo[d][1,3]oxazin-4-one], in the data set with rat mesangial cells [1], the inhibition at 10 µM was 0% and the inhibition at 30 µM came out at 0%. Besides, in the data set on rat mesangial cells [2], the “Cell condition observed (sick, dead)” value is recorded as “sick” and the “Cell condition observed (sick, dead, some death, cells elongated)” value was “dead”. Further, in the data set on rat mesangial cells [2] (@30 uM), the “Tox. Rank (4 = non-toxic)” value is recorded as 2@30 uM. For the same molecule, in the data set on rat mesangial cells [2] (@100 uM), the “Tox. Rank (4 = non-toxic)” value was 1@100 uM.
`COc1ccc(/C=C/C(=O)n2c(=O)oc3ccccc32)cc1OC` [FT124, (E)-3-(3-(3,4-Dimethoxyphenyl)acryloyl)benzo[d]oxazol-2(3H)-one]: in the data set with rat mesangial cells [1], the inhibition at 10 µM came to 0%, the inhibition at 30 µM amounted to 0% and the inhibition at 100 µM turned out to be 0%. Besides, in the data set with rat mesangial cells [2], the “Cell condition observed (sick, dead)” value was “sick” and the “Cell condition observed (sick, dead, some death, cells elongated)” value is on record as “sick”. Moreover, the “Tox. Rank (4 = non-toxic)” value in the data set on rat mesangial cells [2] (no concentration stated) stood at 2. Besides, in data set [3] (10 μM in 0.1% DMSO), the “Compound precipitated during assay” value is listed as “ppt”. In addition, the “Compound precipitated during assay” value in data set [3] (30 μM in 0.1% DMSO) is given as “ppt”. For the same molecule, the “Compound precipitated during assay” value in data set [3] (100 μM in 0.1% DMSO) is “ppt”.
Regarding `COc1ccc(/C=C/c2nc3ccccc3c(=O)o2)cc1OC(C)=O` [FT110, (E)-2-(3-Acetoxy-4-methoxystyryl)-4H-benzo[d][1,3]oxazin-4-one], in the data set on rat mesangial cells [1], the inhibition at 10 µM was found to be 0%, the inhibition at 30 µM was found to be 0% and the inhibition at 100 µM worked out at 0%. In addition, the “Cell condition observed (sick, dead, some death, cells elongated)” value in the data set on rat mesangial cells [2] was “(cells elongated)”. Further, the “Tox. Rank (4 = non-toxic)” value with rat mesangial cells [2] (@100 uM) is reported as 3@100 uM. Besides, the “Compound precipitated during assay” value in data set [3] (100 μM in 0.1% DMSO) is “ppt”.

(Values after patent publication US9951087B2, “Fused ring analogues of anti-fibrotic agents” (Fibrotech Therapeutics PTY LTD, priority 2009, dated 2018).)
